Measured values from publication PMC8624998, “Synthesis and Antiproliferative Evaluation of 3-Chloroazetidin-2-ones with Antimitotic Activity: Heterocyclic Bridged Analogues of Combretastatin A-4” (Pharmaceuticals, 2021).
Read-outs that look alike come from different tables or passages of the source.

Legend:
MALME-3M = experiment: NCI-60 5 dose screen, Melanoma; format: cell-based; conditions: Homo sapiens
UO-31 = experiment: NCI-60 5 dose screen, Renal Cancer; format: cell-based; conditions: Homo sapiens
HCT-15 = experiment: NCI-60 5 dose screen, Colon Cancer; format: cell-based; conditions: Homo sapiens
[1] = system: purified bovine brain tubulin; experiment: In vitro tubulin polymerisation assay; conditions: for Fold-Reduction of Vmax of tubulin polymerisation: 10 µM; for Vmax at 10 µM: 10 µM compound, tubulin 3 mg/mL, vehicle 0.0069
EKVX = experiment: NCI-60 5 dose screen, NSC Lung Cancer; format: cell-based; conditions: Homo sapiens
HT29 = experiment: NCI-60 5 dose screen, Colon Cancer; format: cell-based; conditions: Homo sapiens, HT-29
MCF-7 = experiment: NCI-60 5 dose screen, Breast Cancer; format: cell-based; conditions: Homo sapiens, MCF7
MDA-MB-435 = experiment: NCI-60 5 dose screen, Melanoma; format: cell-based; conditions: Homo sapiens
NCI-H23 = experiment: NCI-60 5 dose screen, NSC Lung Cancer; format: cell-based; conditions: Homo sapiens
HS 578T = experiment: NCI-60 5 dose screen, Breast Cancer; format: cell-based; conditions: Homo sapiens
HL-60 cells = experiment: Cell viability assay, antiproliferative activity; format: cell-based
Protocol: (§1) […]. The corresponding values for 10e in these cell lines were 161 nM (HL-60), 55 nM (SW480) and 135 nM (HT-29). […] […]. SW480 colon cells expressed low levels of the UDP-glucuronosyltransferase (UGT) protein compared to expression levels in HT-29 cells. […] […].
(§2) The human breast carcinoma cell line MCF-7 was purchased from the European Collection of Animal Cell Cultures (ECACC). Triple negative breast cancer Hs578T cells and its invasive variant Hs578Ts(i)8 were a kind gift from Dr. Susan McDonnell, School of Chemical and Bioprocess Engineering, University College Dublin. U266 cells were a gift from Dr. Tony McElligott, School of Medicine, St James’s Hospital, Trinity College Dublin. HT-29 cells were purchased from the European Collection of Cell Cultures (originating from a human adenocarcinoma of the colon). The human breast carcinoma cell line MDA-MB-231 and the HL-60 cells derived from a patient with acute myeloid leukaemia were both obtained from ECACC (Salisbury, UK). The SW-480 cells were a kind gift from Dr. Brian Flood, School of Biochemistry and Immunology, Trinity College Dublin. HEK-293T (normal epithelial embryonic kidney cells) were cultured in Dulbecco’s Modified Eagle’s Medium (DMEM) with GlutaMAXTM-I in the absence of non-essential amino acids. Human breast cancer MCF-7 cells and multiple myeloma U266 cells were cultured in Minimum Essential Media (MEM) with GlutaMAX™-I, supplemented with 1% (v/v) non-essential amino acids, 10% 2(v/v) foetal bovine serum (FBS) and 1% (v/v) penicillin/streptomycin 5000 U/mL. MDA-MB-231 cells were maintained in DMEM supplemented with 10% (v/v) foetal bovine serum, 2 mM L-glutamine and 100 μg/mL penicillin/streptomycin (complete medium). Colon cancer HT-29 and SW-480 and triple negative breast cancer Hs578T and its invasive variant Hs578T8i were cultured in DMEM with GlutaMAX™-I, with the same supplement in the absence of non-essential amino acids. Leukaemia HL-60 cancer cells were cultured in Roswell Park Memorial Institute Media (RPMI-1640) with GlutaMAX™-I, supplemented with 10% FCS media, and 100 μg/mL penicillin/streptomycin as above. Cell numbers were monitored using a haemocytometer. Cell culture flasks were incubated in a humidified incubator (5% CO2/95% air) at 37 °C. All cell lines were sub-cultured three times per week with trypsinisation using TrypLE Express (1X) required for adherent cell lines.
(§3) . All stock solutions and serial dilution in ethanol/DMSO were stored at -20 °C. All cells were seeded at a density of 2.5 × 10^4 cells/mL in a 96-well plate (200 μL per well). The cells were incubated in a […] atmosphere at 37 °C for 24 h, then treated with test compound (2 μL of stock solutions per 200-microlitre well) in ethanol to obtain a concentration range of 1 nM–200 μM for the study. The plates were then re-incubated for a further 72 h. Control wells contained an equivalent volume of the vehicle ethanol or DMSO (1% v/v). MTT cell viability assay: The culture medium was removed, and the cells were washed with phosphate buffered saline (PBS, […]). MTT (dissolved in PBS, […]) was added to obtain a final concentration of MTT (1 mg/mL). Cells were incubated at 37 °C for 3 h in the dark. Solubilisation was commenced by the addition of DMSO ([…]) and the cells were maintained at 20 °C in the dark for 20 min before reading the absorbance to ensure complete colour diffusion. The absorbance value of control cells (no added compound) was set to 100% cell viability and absorbance versus cell density per well was determined to assess cell viability using Graph-Pad Prism software. AlamarBlue cell viability assay: Cells were seeded in 96-well plates (e.g., MCF-7, 5 × 10^3 cells/well) and (HT-29 cells, 1 × 10^3 cells/well) and (HL-60 cells, 1 × 10^4 cells/well) with a total volume per well of 200 µL. After 24 h, cells were treated in triplicate with serial dilutions of CA-4 or β-lactam analogues (0.001–100 μM), medium alone or vehicle (1% ethanol (v/v)). […]

HT-29 cells = experiment: Cell viability assay, antiproliferative activity; format: cell-based
Protocol: as §1, §2, §3

[2] = MCF-7, NCI screen, read-out: GI50 in MCF-7 cells
[3] = Homo sapiens, HL-60, 72 h; read-out: HL-60 IC50
[4] = Homo sapiens, HT-29, 72 h; read-out: HT-29 IC50

Row | IC50 (HL-60 cells; [3]) | IC50 (HT-29 cells; [4]) | Compound | GI50 (MALME-3M; read-out: GI50) | GI50 (UO-31; read-out: GI50) | GI50 (HCT-15; read-out: GI50) | Fold-Reduction of Vmax of tubulin polymerisation [1] | Vmax at 10 µM [1] | GI50 (EKVX; read-out: GI50) | GI50 (HT29; HT29, read-out: GI50) | GI50 (MCF-7; [2]) | GI50 (MCF-7; MCF-7, read-out: GI50) | GI50 (MDA-MB-435; read-out: GI50) | GI50 (NCI-H23; read-out: GI50) | GI50 (HS 578T; HS 578T, read-out: GI50) | also measured
1 | 161 ± 20 nM | 135 ± 60 nM | COc1ccc([C@H]2[C@H](Cl)C(=O)N2c2cc(OC)c(OC)c(OC)c2)cc1 (relative stereo) [Compound 10e trans, Trans-3-chloro-1-(3,4,5-trimethoxyphenyl)-4-(4-methoxyphenyl) azetidin-2-one] | 88.4 nM | 64.4 nM | 50.4 nM | 1.8 fold | 0.0039 mOD/min | 69.4 nM | 29.2 nM | 34 nM | 34.3 nM | 22.6 nM | 31.2 nM | 55.3 nM | –
2 | 10 ± 8 nM | 631 ± 30 nM | COc1ccc(C2C(Cl)C(=O)N2c2cc(OC)c(OC)c(OC)c2)cc1O (stereo not shown) [Compound 10n, 3-Chloro-4-(3-hydroxy-4-methoxy-phenyl)-1-(3,4,5-trimethoxyphenyl)azetidin-2-one] | – | – | – | – | – | – | – | – | – | – | – | – | –
3 | – | – | COc1ccc(C2N(c3cc(OC)c(OC)c(OC)c3)C(=O)C2(Cl)Cl)cc1O (stereo not shown) [Compound 11n, 3,3-Dichloro-4-(3-hydroxy-4-methoxyphenyl)-1-(3,4,5-trimethoxyphenyl)azetidin-2-one] | – | – | – | 1.7 fold | 0.0041 mOD/min | – | – | – | – | – | – | – | GI50 (MALME-3M): 68.5 nM; GI50 (UO-31): 82.1 nM; GI50 (HCT-15): 38.3 nM; GI50 (EKVX): 46.4 nM; GI50 (HT29): 2780 nM; GI50 (MCF-7): 31 nM; GI50 (MDA-MB-435): 20.2 nM; GI50 (NCI-H23): 24.2 nM; GI50 (HS 578T; Hs-578T): 42.8 nM; IC50 (HL-60 cells; Homo sapiens, HL-60, 72 h, read-out: HL-60 IC50): 16 ± 5 nM; IC50 (HT-29 cells; Homo sapiens, HT-29, 72 h, read-out: HT-29 IC50): 941 ± 60 nM
4 | – | – | CCSc1ccc(C2C(Br)C(=O)N2c2cc(OC)c(OC)c(OC)c2)cc1 (stereo not shown) [Compound 16d, 3-Bromo-4-(4-(ethylthio)phenyl)-1-(3,4,5-trimethoxyphenyl)azetidin-2-one] | 11300 nM | 342 nM | 210 nM | – | – | 639 nM | 351 nM | 44 nM | 44.7 nM | 37.7 nM | 478 nM | 229 nM | –

Row | Compound | IC50 (HL-60 cells; [3]) | IC50 (HT-29 cells; [4]) | GI50 (MALME-3M; read-out: GI50) | GI50 (UO-31; read-out: GI50) | GI50 (HCT-15; read-out: GI50) | Fold-Reduction of Vmax of tubulin polymerisation [1] | Vmax at 10 µM [1] | GI50 (EKVX; read-out: GI50) | GI50 (HT29; HT29, read-out: GI50) | GI50 (MCF-7; [2]) | GI50 (MCF-7; MCF-7, read-out: GI50) | GI50 (MDA-MB-435; read-out: GI50) | GI50 (NCI-H23; read-out: GI50) | GI50 (HS 578T; HS 578T, read-out: GI50) | also measured
5 | COc1ccc(/C=C\c2cc(OC)c(OC)c(OC)c2)cc1O [CA-4, Combretastatin A-4] | 1.9 ± 0.5 nM | – | – | – | – | – | 0.0022 mOD/min | – | – | – | – | – | – | – | IC50 (HL-60 cells; Homo sapiens, HL-60; read-out: HL-60 IC50): 2 nM; IC50 (HT-29 cells; Homo sapiens, HT-29; read-out: HT-29 IC50): 4160 nM
